These results are taken from patent publication US20250231185A1, “Coronavirus T Cell Epitopes, Megapools and Uses Thereof” (La Jolla Institute for Immunology, priority 2021, published 2025).

For the first assay, the system named is CD8+ T cells.
Assay: not given
Particulars: CD8RE megapool peptides (non-spike SARS-CoV-2 antigens); dominant epitope Yes/No; cited from earlier work.
With 3019 (SAFAMMFVK) [compound 3019], the Dominant entry is recorded as “Yes (more dominant epitopes are defined by being recognized by 3 or more donors/different studies)”.
Take 3020 (FLLPSLATV) [compound 3020]: the Dominant result is recorded as “Yes (more dominant epitopes are defined by being recognized by 3 or more donors/different studies)”.
3021 (MPASWVMRI) [compound 3021]: the Dominant entry is listed as “Yes (more dominant epitopes are defined by being recognized by 3 or more donors/different studies)”.
Turning to 3022 (KLKDCVMYA) [compound 3022], the Dominant result is listed as “Yes (more dominant epitopes are defined by being recognized by 3 or more donors/different studies)”.
3023 (SMWALIISV) [compound 3023]: the Dominant entry is “Yes (more dominant epitopes are defined by being recognized by 3 or more donors/different studies)”.
Take 3025 (SEFSSLPSY) [compound 3025]: the Dominant entry is “Yes (more dominant epitopes are defined by being recognized by 3 or more donors/different studies)”.
Regarding 3026 (NTCDGTTFTY) [compound 3026], the Dominant entry is given as “Yes (more dominant epitopes are defined by being recognized by 3 or more donors/different studies)”.
Take 3027 (FTYASALWEI) [compound 3027]: the Dominant entry is “Yes (more dominant epitopes are defined by being recognized by 3 or more donors/different studies)”.
For 3030 (ALRANSAVK) [compound 3030], the Dominant result is “Yes (more dominant epitopes are defined by being recognized by 3 or more donors/different studies)”.
On to 3032 (CTDDNALAYY) [compound 3032], for which the Dominant entry was “Yes (more dominant epitopes are defined by being recognized by 3 or more donors/different studies)”.
For 3033 (YTELEPPCRF) [compound 3033], the Dominant result was “Yes (more dominant epitopes are defined by being recognized by 3 or more donors/different studies)”.
Consider 3034 (VTDTPKGPK) [compound 3034], for which the Dominant entry was “Yes (more dominant epitopes are defined by being recognized by 3 or more donors/different studies)”.
With 3035 (MDLFMRIFTI) [compound 3035], the Dominant entry is “Yes (more dominant epitopes are defined by being recognized by 3 or more donors/different studies)”.
Take 3036 (FVRATATIPI) [compound 3036]: the Dominant entry is given as “Yes (more dominant epitopes are defined by being recognized by 3 or more donors/different studies)”.
For 3037 (IPIQASLPF) [compound 3037], the Dominant entry is reported as “Yes (more dominant epitopes are defined by being recognized by 3 or more donors/different studies)”.
Take 3038 (IVGVALLAVF) [compound 3038]: the Dominant entry is “Yes (more dominant epitopes are defined by being recognized by 3 or more donors/different studies)”.
Regarding 3039 (ALSKGVHFV) [compound 3039], the Dominant result is on record as “Yes (more dominant epitopes are defined by being recognized by 3 or more donors/different studies)”.
As to 3040 (YLYALVYFL) [compound 3040], the Dominant entry is given as “Yes (more dominant epitopes are defined by being recognized by 3 or more donors/different studies)”.
On to 3041 (VYFLQSINF) [compound 3041], for which the Dominant entry was “Yes (more dominant epitopes are defined by being recognized by 3 or more donors/different studies)”.
For 3042 (LLYDANYFL) [compound 3042], the Dominant entry is “Yes (more dominant epitopes are defined by being recognized by 3 or more donors/different studies)”.
3043 (FTSDYYQLY) [compound 3043]: the Dominant result was “Yes (more dominant epitopes are defined by being recognized by 3 or more donors/different studies)”.
On to 3044 (YYQLYSTQL) [compound 3044], for which the Dominant entry is recorded as “Yes (more dominant epitopes are defined by being recognized by 3 or more donors/different studies)”.
As for 3045 (HLVDFQVTI) [compound 3045], the Dominant entry is given as “Yes (more dominant epitopes are defined by being recognized by 3 or more donors/different studies)”.
3046 (QLRARSVSPK) [compound 3046]: the Dominant entry was “Yes (more dominant epitopes are defined by being recognized by 3 or more donors/different studies)”.
On to 3047 (RARSVSPKL) [compound 3047], for which the Dominant entry is “Yes (more dominant epitopes are defined by being recognized by 3 or more donors/different studies)”.
As to 3048 (KLFIRQEEV) [compound 3048], the Dominant result is given as “Yes (more dominant epitopes are defined by being recognized by 3 or more donors/different studies)”.
For 3049 (VFITLCFTLK) [compound 3049], the Dominant result is on record as “Yes (more dominant epitopes are defined by being recognized by 3 or more donors/different studies)”.
For the substance 3050 (IMLIIFWFSL) [compound 3050], the Dominant result is “Yes (more dominant epitopes are defined by being recognized by 3 or more donors/different studies)”.
On to 3051 (IQYIDIGNY) [compound 3051], for which the Dominant result was “Yes (more dominant epitopes are defined by being recognized by 3 or more donors/different studies)”.
For 3052 (KLGSLVVRC) [compound 3052], the Dominant entry was “Yes (more dominant epitopes are defined by being recognized by 3 or more donors/different studies)”.
As for 3053 (LEYHDVRVVL) [compound 3053], the Dominant entry is given as “Yes (more dominant epitopes are defined by being recognized by 3 or more donors/different studies)”.

Staying with this assay, now noted: HLA-A*01:01 epitopes overlapping TTDPSFLGRY; Saini et al.; cited from earlier work.
HTTDPSFLGRY [nsp3 818-828]: the dominance as reported result is given as “particularly dominant”.
For TTDPSFLGRYM [nsp3 819-829], the dominance as reported result is listed as “particularly dominant”.

The assay is the same for the next values; noted with them: Habel et al., 14 peptides screened; HLA-A*02:01; cited from earlier work.
For “ORF1ab 3183-3191: SARS-CoV-2 ORF1ab 3183-3191 CD8 epitope among 14 peptides screened in the Habel et al. study (FLLNKEMYL; CD8 epitope peptide; UniProt P0DTD1 3183-3191, looked up, fragment) [reference compound]”, the IFN-f response result is given as “less prominently recognized”.
For the substance VLNDILSRL [SEQ ID NO: 1508], the IFN-f response result was “less prominently recognized”.

Staying with this assay, now noted: Nelde et al.; HLA-A*01:01 restricted; cited from earlier work.
Turning to TTDPSFLGRY [nsp3 819-828], the “positive in donors tested” value was 83%.

The same assay, now with this note: Rha et al.; 37 of 112 and 2 of 40 patients; cited from earlier work.
Regarding FIAGLIAIV [SEQ ID NO: 1520], the “responses detected in patients” value was 5%.

The subject of a further assay is CD8+ T cells. The experiment in a line: Meta-analysis of published SARS-CoV-2 CD8 T cell epitope data curated in the IEDB (25 studies). The format is cell-based, human. Particulars: CD8 epitopes; Yes = recognized by 3 or more donors/different studies.
On to 420 (SLVKPSFYV) [compound 420], for which the Dominant entry was “Yes (more dominant epitopes are defined by being recognized by 3 or more donors/different studies)”.
Take 423 (YVYSRVKNL) [compound 423]: the Dominant entry was “Yes (more dominant epitopes are defined by being recognized by 3 or more donors/different studies)”.
425 (GTITVEELK) [compound 425]: the Dominant result is recorded as “Yes (more dominant epitopes are defined by being recognized by 3 or more donors/different studies)”.
Regarding 426 (KLLEQWNLV) [compound 426], the Dominant entry is given as “Yes (more dominant epitopes are defined by being recognized by 3 or more donors/different studies)”.
As to 427 (FLFLTWICL) [compound 427], the Dominant result is reported as “Yes (more dominant epitopes are defined by being recognized by 3 or more donors/different studies)”.
As for 429 (LQFAYANRNRFLY) [compound 429], the Dominant result is on record as “Yes (more dominant epitopes are defined by being recognized by 3 or more donors/different studies)”.
As for 437 (NRFLYIIKL) [compound 437], the Dominant entry is on record as “Yes (more dominant epitopes are defined by being recognized by 3 or more donors/different studies)”.
For the substance 442 (TLACFVLAAV) [compound 442], the Dominant result is on record as “Yes (more dominant epitopes are defined by being recognized by 3 or more donors/different studies)”.
Same read-out and setting: with 451 (SYFIASFRLFA) [compound 451] the entry was “Yes (more dominant epitopes are defined by being recognized by 3 or more donors/different studies)”; with 455 (RLFARTRSMW) [compound 455], “Yes (more dominant epitopes are defined by being recognized by 3 or more donors/different studies)”; with 457 (SMWSFNPET) [compound 457], “Yes (more dominant epitopes are defined by being recognized by 3 or more donors/different studies)”.
For 463 (SELVIGAVIL) [compound 463], the Dominant entry is “Yes (more dominant epitopes are defined by being recognized by 3 or more donors/different studies)”.
As to 466 (AVILRGHLR) [compound 466], the Dominant result is reported as “Yes (more dominant epitopes are defined by being recognized by 3 or more donors/different studies)”.
Consider 467 (HLRIAGHHLGR) [compound 467], for which the Dominant entry is “Yes (more dominant epitopes are defined by being recognized by 3 or more donors/different studies)”.
In the case of 471 (TVATSRTLSYYK) [compound 471], the Dominant entry is listed as “Yes (more dominant epitopes are defined by being recognized by 3 or more donors/different studies)”.
As for 475 (ATSRTLSYYK) [compound 475], the Dominant entry is on record as “Yes (more dominant epitopes are defined by being recognized by 3 or more donors/different studies)”.
As for 476 (ATSRTLSYY) [compound 476], the Dominant entry is “Yes (more dominant epitopes are defined by being recognized by 3 or more donors/different studies)”.
Turning to 477 (ASQRVAGDSGFAAY) [compound 477], the Dominant result is “Yes (more dominant epitopes are defined by being recognized by 3 or more donors/different studies)”.
Take 484 (RYRIGNYKL) [compound 484]: the Dominant entry was “Yes (more dominant epitopes are defined by being recognized by 3 or more donors/different studies)”.
In the case of 491 (NTASWFTAL) [compound 491], the Dominant entry was “Yes (more dominant epitopes are defined by being recognized by 3 or more donors/different studies)”.
As to 492 (KFPRGQGVPI) [compound 492], the Dominant result is reported as “Yes (more dominant epitopes are defined by being recognized by 3 or more donors/different studies)”.
As for 493 (FPRGQGVPI) [compound 493], the Dominant entry was “Yes (more dominant epitopes are defined by being recognized by 3 or more donors/different studies)”.
